Data on three compounds can be found in patent US5512553A, “7-(substituted)-8-(substituted)-9-(substituted amino)-6-demethyl-6-deoxytetracyclines” (American Cyanamid Company, priority 1995, dated 1996).

Counter-ions that a name gives are not always drawn. Like-named read-outs stand apart in the source and are kept apart here.

In assay [1] the test system is E. coli UBMS 88-1 (tetB). Description: microbe, parasite or virus in culture. In kind it is cell-based. The following applies: Escherichia coli, 18 h. On the procedure:
(§1) Method for In Vitro Antibacterial Evaluation (Table I)
(§2) The minimum inhibitory concentration (MIC), the lowest concentration of the antibiotic which inhibits growth of the test organism, is determined by the agar dilution method using Muller-Hinton II agar (Baltimore Biological Laboratories). An inoculum density of 1-5×10^5 CFU/ml and an antibiotic concentration (32-≤0.015 μg/ml) is used. The plates are incubated for 18 hours at 35° C. in a forced air incubator. The test organisms comprise strains sensitive to tetracycline and genetically defined strains that are resistant to tetracycline, due to inability to bind bacterial ribosomes (tetM).

Assay [2] deals with S. aureus UBMS 88-5 (tetM). Description: microbe, parasite or virus in culture. The following applies: Staphylococcus aureus, 18 h. The assay is classed as cell-based. On the procedure:
as §1, §2

For assay [3], the system named is S. aureus UBMS 88-7 (tetK). The assay can be described thus: microbe, parasite or virus in culture. In kind it is cell-based. As to conditions: Staphylococcus aureus, 18 h. On the procedure:
as §1, §2

In assay [4] the test system is S. aureus UBMS 90-1 (tetM). The assay can be described thus: microbe, parasite or virus in culture. In kind it is cell-based. As to conditions: Staphylococcus aureus, 18 h. On the procedure:
as §1, §2

The subject of assay [5] is S. aureus UBMS 90-2 (tetM). Description: microbe, parasite or virus in culture. The following applies: Staphylococcus aureus, 18 h. The assay is classed as cell-based. On the procedure: as §1, §2
Assay [6] has as its system E. coli ATCC 25922. The assay can be described thus: In vitro antibacterial evaluation, MIC by agar dilution. The assay is classed as cell-based. The following applies: Escherichia coli. On the procedure:
as §1, §2

The test system of assay [7] is E. coli UBMS 88-2 (sensitive). Described as above. The assay is classed as cell-based. As to conditions: Escherichia coli, 18 h. On the procedure:
as §1, §2

For assay [8], the system named is E. coli UBMS 89-2 (sensitive). The description is as above. As to conditions: Escherichia coli, Muller-Hinton II agar, 18 hours at 35° C. In kind it is cell-based. On the procedure: as §1, §2
For assay [9], the system named is Enteroc. spp. 12201. The assay is described as above. The assay is classed as cell-based. On the procedure:
as §1, §2

Assay [10] deals with S. aureus ATCC 29213 (sensitive). The description is as above. In kind it is cell-based. The following applies: Staphylococcus aureus, ATCC29213; agar dilution, Muller-Hinton II agar, 18 hours at 35° C.; S. aureus ATCC 29213 (sensitive); read-out: MIC. On the procedure: as §1, §2
A general note: In agar dilution the substance is mixed into plates at graded concentrations.

The test system of assay [11] is S. aureus IVES 1983 (MP) (meth. resistant). The assay is described as above. The assay is classed as cell-based. As to conditions: Staphylococcus aureus. On the procedure: as §1, §2
The test system of assay [12] is S. aureus SMITH (MP) (sensitive). The assay is described as above. The assay is classed as cell-based. As to conditions: Staphylococcus aureus; agar dilution, Muller-Hinton II agar, 18 hours at 35° C.; S. aureus SMITH (MP) (sensitive); read-out: MIC. On the procedure:
as §1, §2

In assay [13] the test system is S. aureus UBMS 88-4 (sensitive). Described as above. The assay is classed as cell-based. The following applies: Staphylococcus aureus. On the procedure: as §1, §2
In assay [14] the test system is S. aureus UBMS 90-3 (sensitive). The assay is described as above. The assay is classed as cell-based. As to conditions: Staphylococcus aureus; agar dilution, Muller-Hinton II agar, 18 hours at 35° C.; S. aureus UBMS 90-3 (sensitive); read-out: MIC. On the procedure:
as §1, §2

Assay [15] relates to S. faecal. ATCC 29212. Described as above. In kind it is cell-based. On the procedure:
as §1, §2

The subject of assay [16] is S30 extract from E. coli strain MRE 600 (tetracycline sensitive). Description: E. coli in vitro cell free protein translation system, Wild Type S30. The assay is classed as biochemical. The following applies: for % Inhibition Wild Type S30: 35S-methionine incorporation, 30 minutes at 37° C. From the text:
(§3) E. coli in Vitro protein Translation System (Table II)
(§4) An in vitro, cell free, protein translation system using extracts from E. coli strain MRE 600 (tetracycline sensitive) and a derivative of MRE 600 containing the tetM determinant has been developed based on literature methods J. M. Pratt, Coupled Transcription-translation in Prokaryotic Cell-free Systems, Transcription and Translation, a Practical Approach, (B. D. Hames and S. J. Higgins, eds) p. 179-209, IRL Press, Oxford-Washington, 1984!.
(§5) Using the system described above, the tetracycline compounds of the present invention are tested for their ability to inhibit protein synthesis in vitro. Briefly, each 10 μl reaction contains S30 extract (a whole extract) made from either tetracycline sensitive cells or an isogenic tetracycline resistant (tetM) strain, low molecular weight components necessary for transcription and translation (i.e., ATP and GTP), a mix of 19 amino acids (no methionine), ^35 S labeled methionine, DNA template (either pBR322 or pUC119), and either DMSO (control) or the novel tetracycline compound to be tested ("novel TC") dissolved in DMSO.
(§6) The reactions are incubated for 30 minutes at 37° C. Timing is initiated with the addition of the S30 extract, the last component to be added. After 30 minutes, 2.5 μl of the reaction is removed and mixed with 0.5 ml of 1N NaOH to destroy RNA and tRNA. Two to three ml of 25% trichloroacetic acid is added and the mixture incubated at room temperature for 15 minutes. The trichloroacetic acid precipitated material is collected on Whatman GF/C filters and washed with a solution of 10% trichloroacetic acid. The filters are dried and the retained radioactivity, representing incorporation of ^35 S-methionine into polypeptides, is counted using standard liquid scintillation methods.
(§7) The percent inhibition (P.I.) of protein synthesis is determined to be: [formula]

In assay [17] the test system is S30 extract from derivative of E. coli MRE 600 containing the tetM determinant. The assay can be described thus: E. coli in vitro cell free protein translation system, TetM S30. The assay is classed as biochemical. As to conditions: cell-free extracts from strain MRE600 (tetM).
From the text: as §3, §4, §5, §6, §7

Assay [18] concerns tetracycline sensitive and resistant Gram-positive and Gram-negative bacteria. The assay can be described thus: In vitro antibacterial activity, summary statements of the testing results. In kind it is cell-based. On the procedure: as §1, §2
Assay [19] has as its system E. coli UBMS 89-1 (tetM). The assay can be described thus: microbe, parasite or virus in culture. The assay is classed as cell-based. As to conditions: Escherichia coli, 18 h. On the procedure: as §1, §2
The test system of assay [20] is S. aureus IVES 2943 (meth. resistant). Description: In vitro antibacterial evaluation, MIC by agar dilution. The assay is classed as cell-based. The following applies: Staphylococcus aureus, 18 h. On the procedure:
as §1, §2

Assay [21] has as its system S. haemol. AVAH 88-3. The assay is described as above. In kind it is cell-based. On the procedure:
as §1, §2

Assay [22] deals with Staphylococcus aureus strain Smith (tetracycline sensitive). Description: In vivo antibacterial evaluation, acute lethal infection in mice. The following applies: 168 h, female mice CD-1, intraperitoneal challenge with S. aureus Smith, dosed subcutaneously or orally 30 minutes after infection, 7 day survival ratios. On the procedure: In Vivo Antibacterial Evaluation (Table III)
The therapeutic effects of tetracyclines are determined against an acute lethal infection with Staphylococcus aureus strain Smith (tetracycline sensitive). Female, mice, strain CD-1 (Charles River Laboratories), 20±2 grams, are challenged by an intraperitoneal injection of sufficient bacteria (suspended in hog mucin) to kill non-treated controls within 24-48 hours. Antibacterial agents, contained in 0.5 ml of 0.2% aqueous agar, are administered subcutaneously or orally 30 minutes after infection. When an oral dosing schedule is used, animals are deprived of food for 5 hours before and 2 hours after infection. Five mice are treated at each dose level. The 7 day survival ratios from 3 separate tests are pooled for calculation of median effective dose (ED50).

Where [23] appears, read: ATCC25922, agar dilution, Muller-Hinton II agar, 18 hours at 35° C., E. coli ATCC 25922, read-out: MIC.
The mark [24] stands for this setting: agar dilution, Muller-Hinton II agar, 18 hours at 35° C., Enteroc. spp. 12201, read-out: MIC.
[25] abbreviates: agar dilution, Muller-Hinton II agar, 18 hours at 35° C., S. aureus IVES 1983 (MP) (meth. resistant), read-out: MIC.
Setting [26] is: agar dilution, Muller-Hinton II agar, 18 hours at 35° C., S. faecal. ATCC 29212, read-out: MIC.

Turning to `CN(C)[C@@H]1C(O)=C(C(N)=O)C(=O)[C@@]2(O)C(O)=C3C(=O)c4c(cc(Cl)c(NC=O)c4O)CC3CC12` (stereo partly shown) [A, 8-Chloro-4-(dimethylamino)-9-(formylamino)-1,4,4a,5,5a,6,11,12a-octahydro-3,10,12,12a-tetrahydroxy-1,11-dioxo-2-naphthacenecarboxamide hydrochloride or sulfate], the MIC was 32 µg/mL in assay [1]; 0.12 µg/mL in assay [2]; 16 µg/mL in [3]; 0.25 µg/mL in [4]; 0.03 µg/mL in [5]; 0.12 µg/mL in [6] (setting [23]). The MIC in assay [7] was 0.12 µg/mL; in assay [8] it was 0.25 µg/mL; in assay [9] (setting [24]), 0.5 µg/mL; in assay [10] it was less than 0.015 µg/mL; in [11] (setting [25]) it was 32 µg/mL; in [12], less than 0.015 µg/mL. Also, the MIC was less than 0.015 µg/mL in [13] (agar dilution, Muller-Hinton II agar, 18 hours at 35° C., S. aureus UBMS 88-4 (sensitive), read-out: MIC); less than 0.015 µg/mL in assay [14]; less than 0.015 µg/mL in assay [15] (setting [26]). The “% Inhibition Wild Type S30” value in assay [16] (Conc. 0.3 mg/ml) was 98%; in assay [16] (Conc. 1.0) it was 93%. Also, the “inhibition of protein synthesis, in words” value in assay [16] (cell-free extracts from tetracycline susceptible strain MRE600) and in assay [17] was “effectively inhibited” throughout. Besides, the “in vitro activity, in words” value in assay [18] (tetracycline resistant strains containing tetM (S. aureus UBMS 88-5, 90-1 and 90-2)) is on record as “good in vitro activity”. The “in vitro activity compared with minocycline, in words” value in assay [18] (tetracycline susceptible strains) is “equally as effective as minocycline”.
As a reminder, the ED50 is the midpoint of the dose-response relation. Regarding `CN(C)c1c(Cl)cc(O)c2c1CC1CC3[C@H](N(C)C)C(O)=C(C(N)=O)C(=O)[C@@]3(O)C(O)=C1C2=O` (stereo partly shown) [B, 8-Chloro-4,7-bis(dimethylamino)-1,4,4a,5-5a,6,11,12a-octahydro-3,10,12,12a-tetrahydroxy-1,11-dioxo-2-naphthacenecarboxamide sulfate], the MIC in assay [1] was more than 32 µg/mL; in assay [19], more than 32 µg/mL; in assay [2] it was 0.5 µg/mL; in assay [3], 0.5 µg/mL; in assay [4] it was 0.05 µg/mL; in [5], 0.5 µg/mL. For the same compound, the MIC in assay [6] (ATCC25922, 18 h) was 8 µg/mL; in assay [7], 8 µg/mL; in assay [8], 16 µg/mL; in assay [9] (18 h), 1 µg/mL; in assay [10], not above 0.015 µg/mL; in assay [11] (18 h) it was 1 µg/mL. Further, the MIC in [20] was determined as 1 µg/mL; in assay [12] it was 0.06 µg/mL; in assay [13] (18 h) it was 0.03 µg/mL; in assay [14], 0.06 µg/mL; in assay [15] (18 h), 1 µg/mL; in [21] (18 h), 0.25 µg/mL. Further, the ED50 in assay [22] is more than 16 mg/kg.
`CN(C)[C@@H]1C(O)=C(C(N)=O)C(=O)[C@@]2(O)C(O)=C3C(=O)c4c(cc(Cl)c(NN)c4O)CC3CC12` (stereo partly drawn) [J, 4S-(4alpha, 12aalpha)!-8-Chloro-4-(dimethylamino)-9-hydrazino-1,4,4a,5,5a,6-11,12a-octahydro-3,10,12,12a-tetrahydroxy-1,11-dioxo-2-naphthacenecarboxamide monohydrochloride]: the MIC in [1] came out at 32 µg/mL; in assay [19] it was 16 µg/mL; in [2], 0.5 µg/mL; in [3] it was 1 µg/mL; in assay [4], 0.5 µg/mL; in [5], 0.5 µg/mL. The MIC in assay [6] (setting [23]) is 1 µg/mL; in [7], 2 µg/mL; in assay [8] it was 4 µg/mL; in assay [9] (setting [24]), 0.05 µg/mL; in assay [10], not above 0.015 µg/mL; in [11] (setting [25]), 2 µg/mL. Also, the MIC in assay [12] came out at 0.03 µg/mL; in assay [13] (18 h) it was 0.06 µg/mL; in assay [14], 0.03 µg/mL; in [15] (setting [26]) it was 0.5 µg/mL; in assay [21] (agar dilution, Muller-Hinton II agar, 18 hours at 35° C., S. haemol. AVAH 88-3, read-out: MIC) it was 0.25 µg/mL. Further, the ED50 in assay [22] is more than 16 mg/kg.
